Results reported in patent US7166744B2, “Retinoid derivatives and methods for producing said compounds and anti-cancer pharmaceutical composition comprising said compounds” (Chebigen Co., Ltd., priority 2001, dated 2007).
“Also recorded” adds a separate entry of the source.

Columns and labels:
Type in all cases: cell-based
[1] = tested on: MDA-MB-231 breast cancer cells; assay: MTT proliferation assay, MDA-MB-231
Description: (§1) The effects of test compounds on proliferation of various cancer cells was examined by 3-(4,5-dimethylthiazol-2-yl)-2,5-diphenyltetrazolium bromide (MTT, Sigma) assay in a dose dependent manner. In the MTT assay, colon, liver, cervix, ovary, and breast cancer cell lines were treated with test compounds at various concentrations. Living cancer cells reduce MTT to dark blue MTT formazan that would be measured by absorbance.
(§2) Colon cancer cells, HCT116, DLD-1 and HT29, cervix cancer cells, HeLa and CaSki, ovary cancer cells, SKOV-3, 2774 and OVCAR-3, liver cancer cells, SK-Hep-1, PLCPRF5 and HepG2, and breast cancer cells, ZR75-1 and MDA-MB 231 were seeded at an initial density of 3000 cells per well in 96-well plates. After attachment of cells to the walls of the wells, the medium containing fresh retinoid was treated with various concentrations (0.5 μM, 1 μM, 2.5 μM, 5 μM, 10 μM) for 48 hours. 50 μl of MTT solution (2 mg/ml in PBS) was added to cell culture media. The reaction micture was incubated at 37° C. in a 5% CO2 atmosphere for 4 hours. The supernatant was removed and 150 μl of DMSO was added. The optical density was measured spectrophotometrically at 550 nm. […] For other retinoid derivatives according to the present invention, absorbances were measured by this procedure and IC50 values, concentrations required for 50% growth inhibition, were determined.

[2] = tested on: OVCAR-3 ovary cancer cells; assay: MTT proliferation assay, OVCAR-3; conditions: ovarian cancer
Description: as §1, §2

[3] = tested on: SKOV-3 ovary cancer cells; assay: MTT proliferation assay, SKOV-3; conditions: ovarian cancer
Description: as §1, §2

HeLa cervix cancer cells = assay: MTT proliferation assay, HeLa; conditions: 48 hours, uterine cancer
Description: as §1, §2

[4] = tested on: SK-Hep-1 liver cancer cells; assay: MTT proliferation assay, SK-Hep-1
Description: as §1, §2

[5] = tested on: HCT116 colon cancer cells; assay: DAPI staining of nuclei, HCT116; conditions: for nuclear condensation and fragmentation (DAPI): HCT116, 5 μM, 36 h; for nuclear condensation (DAPI): HCT116, Experimental Example 8
Description: (§3) By DAPI (4,6-diamidino-2-phenylindole) staining assay for staining DNA in cellular nucleus, nuclear condensation and fragmentation, characteristic features of apoptosis, were observed. […] In FIG. 4, the control represents non-treated cells. The sub-G1 DNA contents of colon cancer HTC116 cells and breast cancer MCF-7 cells were measured by FACS (Fluorescence-Activated Cell Sorter) assay to quantify the apoptosis (FIG. 5). Finally, in order to further characterize the apoptosis observed in retinoid derivative-treated cells, the cleavage of apoptosis-related proteins, including PARP (poly(ADP-ribose)polymerase) and CPP32 (caspase-3) by Western blotting. […] PARP cleavage occurred in a time-dependent manner, in parallel with the induction of apoptosis (FIG. 6B). C in FIG. 6 represents the result of Western blotting of non-treated cells.
Meanwhile, HPR which is a precursor during the synthesis process of KCBG60 is known to induce apoptosis. Considering that the cells aggregated into small spherical mass upon treatment with KCBG60, KCBG60 is expected to induce apoptosis. In order to confirm apoptosis induced by KCBG60 once again, KCBG60-treated HCT116 cells were stained with DAPI and observed for nuclear condensation, an indicative of apoptosis (FIG. 12).

cancer cells = assay: FACS analysis of DNA content; conditions: 10 μM, 96 hours
Source text: In order to quantitatively determine the levels of apoptosis, the cells treated with the same conditions as above were subjected to FACS analysis to measure DNA contents (FIG. 11).

RARs and RXRs = assay: CAT reporter assay, summary for RARs and RXRs (Experimental Example 9); conditions: 1 μM
Source text: In order to confirm the effect of KCBG60 according to the present invention on retinoid receptor activity, cells were cotransfected with expression vectors of receptor subfamilies and reporter genes. As the reporter gene, chloramphenicol acetyltransferase (CAT) with a transcription control site reactive to respective receptors was used.
In the transcriptional activity for RXR type receptors, similar results were obtained.

[6] = tested on: MCF-7 breast cancer cells; assay: Optical microscopy of treated cells, MCF-7; conditions: MCF-7, 5 μM, 48 hours, compared to HPR
Description: (§4) Both colon cancer HCT116 cells and breast cancer MCF-7 cells were treated with 5 μM of the retinoid derivatives KCBG10 and KCBG41 for 48 hours, and photographed by optical microscope (×200). As a control compound, HPR was used at the same concentration. In FIG. 2, the control represents non-treated cells.

[7] = tested on: PARP (poly(ADP-ribose)polymerase) and CPP32 (caspase-3) cleavage in HCT 116 cells; assay: Western blotting of PARP and CPP32 cleavage; conditions: 5 μM
Description: FIG. 6 is the cleavage results of PARP and CPP-32, by a Western blotting analysis, derived from colon cancer cells HCT 116 to which the respective retinoid derivatives were treated.
as §3

[8] = tested on: RAR subfamilies (RARα, RARβ, RARγ); assay: CAT ELISA reporter assay of retinoid receptors (Experimental Example 4)
Description: As the reporter gene, chloramphenicol acetyltransferase (CAT) gene was used. […] The colon cancer cells were plated at 10^6 in 6-well. At next day, the mixture of DNA (2 μg) and SuperFect reagent was added to the cells. After overnight transfection, the media were exchanged with fresh media containing retinoid at various concentrations for 24 hours and washed with cold 1×PBS. The cells were collected, suspended in 100 μl of 0.25M Tris-HCl (pH 7.6) and lysed by 3 freezing-thawing cycles. After centrifugation (12,000×g, 10 min, 4° C.), 100 μl of the supernatant was recovered. 10 μl of the recovered supernatant was tested for activity of β-galactosidase according to standard prosedures (Sambrook et al., 1989) and 50 μl of the recovered supernatant were tested for activity of the reporter by the CAT ELISA (Boeringer Mannheim, Germany) method. The obtained data for activity of the reporter was normalized with respect to β-gal activity for comparison.

[9] = tested on: HCT116 colon cancer cells; assay: Optical microscopy of treated cells, HCT116; conditions: HCT116, 5 μM, 48 hours, compared to HPR
Description: as §4

Compound | IC50 ([1]; 48 hours) [µM] | IC50 ([2]; 48 hours) [µM] | nuclear condensation and fragmentation (DAPI) [5] | relative rate of dead cells having a DNA content of 2N or less (cancer cells) | IC50 ([3]; 48 hours) [nM] | IC50 (HeLa cervix cancer cells) [nM] | IC50 ([4]; 48 hours) [µM] | number of viable cancer cells (microscopy) [6] | cleavage of PARP and CPP32 (Western blotting) [7] | number of viable cancer cells (microscopy) [9] | nuclear condensation (DAPI) [5] | further results
CC1=C(/C=C/C(C)=C/C=C/C(C)=C/C(=O)O)C(C)(C)CCC1 [ATRA, All-trans-retinoic acid, reference compound] |  |  |  |  |  |  |  |  |  |  |  | IC50 ([1]; Homo sapiens, MDA-MB-231, 48 hours): > 100 µM; IC50 ([2]; Homo sapiens, OVCAR-3, 48 hours): > 100 µM; IC50 ([3]; Homo sapiens, SK-OV-3, 48 hours): > 100000 nM; IC50 (HeLa cervix cancer cells; Homo sapiens, HeLa): 5000 nM; IC50 ([4]; Homo sapiens, SK-HEP1, 48 hours): > 500 µM
CC1=C(/C=C/C(C)=C/C=C/C(C)=C/C(=O)Nc2ccc(O)cc2)C(C)(C)CCC1 [HPR, (2E,4E,6E,8E)-[3,7-dimethyl-9-(2,6,6-trimethylcyclohex-1-enyl)-nona-2,4,6,8-tetraenoylamino]-4-hydroxyphenylamide] | 10 | 8 | largely showed nuclear fragmentation | much higher rates than other groups | 2000 | 3000 | > 100 |  |  |  |  | activity relative to ATRA for all 3 RARs (RARs and RXRs): about 50%
CCCC(=O)Oc1cc(O)ccc1NC(=O)/C=C(C)/C=C/C=C(C)/C=C/C1=C(C)CCCC1(C)C [KCBG10, 2.2-[(2E,4E,6E,8E)-3,7-Dimethyl-9-(2,6,6-trimethylcyclohex-1-enyl)-nona-2,4,6,8-tetraenoylamino]-5-hydroxyphenylbutanoate] | 3.5 | 0.8 | largely showed nuclear fragmentation |  | 500 | 500 | 4.5 | significant reductions in the number of viable cancer cells; also recorded: kills MCF-7 cells much more than other derivatives | induced the cleavage of the proteins | significant reductions in the number of viable cancer cells |  | retinoid receptor activity (CAT reporter) ([8]; concentration dependence): did not have activity at a low concentration but showed an increase of activity as the concentration increased
CCCC(=O)Nc1cc(NC(=O)/C=C(C)/C=C/C=C(C)/C=C/C2=C(C)CCCC2(C)C)ccc1O [KCBG41, (2E,4E,6E,8E)-[3,7-dimethyl-9-(2,6,6-trimethylcyclohex-1-enyl)-nona-2,4,6,8-tetraenoylamino]-(3-butyrylamino-4-hydroxy)phenylamide] | 3.3 | 3.7 | largely showed nuclear fragmentation |  | 3000 | 3000 | 0.8 | significant reductions in the number of viable cancer cells | induced the cleavage of the proteins | significant reductions in the number of viable cancer cells; also recorded: more effective on HCT116 than other derivatives |  | retinoid receptor activity relative to ATRA and HPR ([8]; three RAR subfamilies, as the concentration increased): about 50%
CCCC(=O)Oc1ccc(NC(=O)/C=C(C)/C=C/C=C(C)/C=C/C2=C(C)CCCC2(C)C)cc1 [KCBG60] |  |  |  | much higher rates than other groups |  |  |  |  |  |  | showed small spots, indicating nuclear condensation | activity for RARs and RXRs (RARs and RXRs): activity as low as the control and phenyl butylate-treated group; also recorded: almost no activity for RARs and RXRs
phenyl butylate |  |  |  |  |  |  |  |  |  |  | nuclei were observed normal | 
